In patent US10758534B2 (Vertex Pharmaceuticals Incorporated, priority 2014, dated 2020) one finds EC30 data, which are given here for 28 compounds.

The target of the assay is T1, F508del (Homo sapiens, UniProt P13569, DEL508-508).
T1 construct: expressed in transfected cells
Briefly: Protocol 1: membrane potential optical assay (FLIPR III, voltage sensing dye), identification of potentiator compounds. Format: cell-based. To be noted: Table 3, compounds of Table 1. A digest of the protocol: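 Mouse NIH 3T3 fibroblasts stably expressing F508del, temperature-corrected at 27 °C for 24 h, pretreated with compound, then loaded with voltage-sensing redistribution dye. Forskolin was added in a single step with a chloride gradient (chloride-free gluconate bath; Bath Solution #1 HEPES pH 7.4). Membrane-potential fluorescence read on FLIPR III.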

T1 sequence (P13569 with tags, fused parts or gaps DEL508-508): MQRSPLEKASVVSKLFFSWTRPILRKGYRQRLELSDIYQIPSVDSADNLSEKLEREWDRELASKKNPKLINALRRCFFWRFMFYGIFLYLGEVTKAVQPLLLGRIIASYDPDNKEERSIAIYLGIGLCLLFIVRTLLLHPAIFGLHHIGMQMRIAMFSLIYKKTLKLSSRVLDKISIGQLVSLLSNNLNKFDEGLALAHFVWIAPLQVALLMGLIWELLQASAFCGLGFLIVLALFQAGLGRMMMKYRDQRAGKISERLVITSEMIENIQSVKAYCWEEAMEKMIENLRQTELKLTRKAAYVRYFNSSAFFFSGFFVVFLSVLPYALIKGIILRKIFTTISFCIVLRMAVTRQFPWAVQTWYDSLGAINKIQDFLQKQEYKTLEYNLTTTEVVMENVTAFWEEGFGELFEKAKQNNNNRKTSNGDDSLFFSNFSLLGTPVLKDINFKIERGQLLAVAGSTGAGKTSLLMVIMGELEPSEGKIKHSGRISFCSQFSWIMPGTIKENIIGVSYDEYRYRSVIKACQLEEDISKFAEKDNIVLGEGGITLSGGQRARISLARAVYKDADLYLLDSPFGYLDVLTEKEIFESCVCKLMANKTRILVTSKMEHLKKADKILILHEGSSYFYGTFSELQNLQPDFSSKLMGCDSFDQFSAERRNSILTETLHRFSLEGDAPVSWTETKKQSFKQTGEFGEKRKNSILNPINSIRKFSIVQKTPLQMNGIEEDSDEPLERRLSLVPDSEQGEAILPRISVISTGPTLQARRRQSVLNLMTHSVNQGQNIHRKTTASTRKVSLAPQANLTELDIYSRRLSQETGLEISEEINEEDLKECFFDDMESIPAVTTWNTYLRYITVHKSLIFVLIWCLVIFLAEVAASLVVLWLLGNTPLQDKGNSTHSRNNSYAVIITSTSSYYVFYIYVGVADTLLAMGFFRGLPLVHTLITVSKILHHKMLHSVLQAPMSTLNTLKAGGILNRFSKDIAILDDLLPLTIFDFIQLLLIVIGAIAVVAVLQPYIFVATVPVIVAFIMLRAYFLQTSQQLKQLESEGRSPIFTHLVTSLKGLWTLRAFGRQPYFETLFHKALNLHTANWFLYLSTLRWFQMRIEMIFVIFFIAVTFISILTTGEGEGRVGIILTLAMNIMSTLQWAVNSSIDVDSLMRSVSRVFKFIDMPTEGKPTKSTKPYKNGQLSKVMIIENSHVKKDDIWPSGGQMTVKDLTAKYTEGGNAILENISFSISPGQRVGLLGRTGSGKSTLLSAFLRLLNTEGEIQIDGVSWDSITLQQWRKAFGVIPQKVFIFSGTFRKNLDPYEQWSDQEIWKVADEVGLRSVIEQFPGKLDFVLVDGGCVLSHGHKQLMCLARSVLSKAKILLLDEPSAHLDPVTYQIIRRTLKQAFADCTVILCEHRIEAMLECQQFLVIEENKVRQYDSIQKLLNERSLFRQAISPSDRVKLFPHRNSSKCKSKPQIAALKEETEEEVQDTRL

With `CC(C)COc1ccc(-c2ccc(C(=O)NS(=O)(=O)c3ccn[nH]3)c(N3[C@H](C)CC[C@@H]3C)n2)cc1` [Compound 1335, 2-[(2S,5R)-2,5-dimethylpyrrolidin-1-yl]-6-(4-isobutoxyphenyl)-N-(1H-pyrazol-5-ylsulfonyl)pyridine-3-carboxamide], the EC30 result is reported as “+++ (“+++” means <3 uM)”.

As to `C[C@@H]1CN(c2nc(-c3ccc(O)cc3)ccc2C(=O)NS(=O)(=O)c2cccnc2N)C(C)(C)C1` [Compound 1712, N-[(2-amino-3-pyridyl)sulfonyl]-6-(4-hydroxyphenyl)-2-[(4S)-2,2,4-trimethylpyrrolidin-1-yl]pyridine-3-carboxamide], the EC30 entry was “+++ (“+++” means <3 uM)”. In the case of `CCOc1ccc(-c2ccc(C(=O)NS(=O)(=O)c3cccc(N)n3)c(Oc3c(C)cc(C)cc3C)n2)cc1OC` [Compound 1268, N-[(6-amino-2-pyridyl)sulfonyl]-6-(4-ethoxy-3-methoxy-phenyl)-2-(2,4,6-trimethylphenoxy)pyridine-3-carboxamide], the EC30 result is on record as “+++ (“+++” means <3 uM)”. In the case of `CCOc1cccc2c1CN(Cc1c(C)cc(C)cc1C)C2(C)C(=O)NS(=O)(=O)c1ccccc1N` (stereo not shown) [Compound 1457, N-(2-aminophenyl)sulfonyl-4-ethoxy-1-methyl-2-[(2,4,6-trimethylphenyl)methyl]isoindoline-1-carboxamide] it was “+++ (“+++” means <3 uM)”; in that of `COc1ncccc1S(=O)(=O)NC(=O)c1ccc(-c2ccccc2)nc1Oc1c(C)cc(C)cc1C` [Compound 939, N-[(2-methoxy-3-pyridyl)sulfonyl]-6-phenyl-2-(2,4,6-trimethylphenoxy)pyridine-3-carboxamide], “+++ (“+++” means <3 uM)”; in that of `Cc1cc(C)c(Oc2nc(C3(C)CC3)ccc2C(=O)NS(=O)(=O)c2cccc(N)n2)c(C)c1` [Compound 1310, N-[(6-amino-2-pyridyl)sulfonyl]-6-(1-methylcyclopropyl)-2-(2,4,6-trimethylphenoxy)pyridine-3-carboxamide], “+++ (“+++” means <3 uM)”.

As to `C[C@@H]1CN(c2nc(-c3ccc4[nH]ccc4c3)ccc2C(=O)NS(=O)(=O)c2ccc[nH]c2=O)C(C)(C)C1` [Compound 1982, 6-(1H-indol-5-yl)-N-[(2-oxo-1H-pyridin-3-yl)sulfonyl]-2-[(4S)-2,2,4-trimethylpyrrolidin-1-yl]pyridine-3-carboxamide], the EC30 entry is “++ (“++” means between 3 uM and 10 uM)”.

For `Cc1cc(C)c(Oc2nc(-c3cc(F)ccc3O)ccc2C(=O)NS(=O)(=O)c2cccc(N)n2)c(C)c1` [Compound 1049], the EC30 entry is “+++ (“+++” means <3 uM)”.

Consider `CCC1(C)CCCN(c2nc(-c3ccc(OC(C)C)nc3)ccc2C(=O)NS(=O)(=O)c2cccc(N)n2)C1` (stereo not shown) [Compound 1341, N-[(6-amino-2-pyridyl)sulfonyl]-2-(3-ethyl-3-methyl-1-piperidyl)-6-(6-isopropoxy-3-pyridyl)pyridine-3-carboxamide], for which the EC30 entry is “+++ (“+++” means <3 uM)”. In the case of `Cn1ccc2cccc(Oc3nc(C(C)(C)C)ccc3C(=O)NS(=O)(=O)c3cccc(N)n3)c21` [Compound 1071, N-[(6-amino-2-pyridyl)sulfonyl]-6-tert-butyl-2-(1-methylindol-7-yl)oxy-pyridine-3-carboxamide] it was “+++ (“+++” means <3 uM)”; in that of `CCO/C=C/c1cc(C(=O)NS(=O)(=O)c2cccc(N)n2)c(N2C[C@@H](C)CC2(C)C)nc1C(C)(C)C` [Compound 1626, N-[(6-amino-2-pyridyl)sulfonyl]-6-tert-butyl-5-[(E)-2-ethoxyvinyl]-2-[(4S)-2,2,4-trimethylpyrrolidin-1-yl]pyridine-3-carboxamide], “+++ (“+++” means <3 uM)”. In the case of `Cc1ccc(-c2nc3c(cc2C(=O)NS(=O)(=O)c2ccc(N)cc2)CCCC3(C)C)cc1` [Compound 1307, N-(4-aminophenyl)sulfonyl-8,8-dimethyl-2-(p-tolyl)-6,7-dihydro-5H-quinoline-3-carboxamide] it was “++ (“++” means between 3 uM and 10 uM)”; in that of `C[C@@H]1CN(c2nc(C(C)(C)C)c(C3=CCC(C(F)(F)F)CC3)cc2C(=O)NS(=O)(=O)c2cccc(N)n2)C(C)(C)C1` (stereo partly drawn) [Compound 1380, N-[(6-amino-2-pyridyl)sulfonyl]-6-tert-butyl-5-[4-(trifluoromethyl)cyclohexen-1-yl]-2-[(4S)-2,2,4-trimethylpyrrolidin-1-yl]pyridine-3-carboxamide], “+++ (“+++” means <3 uM)”. In the case of `CC(C)COc1cc(F)cc(-c2ccc(C(=O)NS(=O)(=O)c3ccn[nH]3)c(N3C[C@@H](C)CC3(C)C)n2)c1` [Compound 1041, 6-(3-fluoro-5-isobutoxy-phenyl)-N-(1H-pyrazol-5-ylsulfonyl)-2-[(4S)-2,2,4-trimethylpyrrolidin-1-yl]pyridine-3-carboxamide] it was “+++ (“+++” means <3 uM)”; in that of `Cc1cc(C)c(CN2CCc3ccccc3CC2C(=O)NS(=O)(=O)c2ccccc2)c(C)c1` (stereo not shown) [Compound 1039, N-(benzenesulfonyl)-3-[(2,4,6-trimethylphenyl)methyl]-1,2,4,5-tetrahydro-3-benzazepine-4-carboxamide], “+++ (“+++” means <3 uM)”; in that of `Cc1cc(C)c(Oc2nc(-c3cc(F)cc(OC(C)C)c3)ccc2C(=O)NS(=O)(=O)c2cccc(N)n2)c(C)c1` [Compound 1138, N-[(6-amino-2-pyridyl)sulfonyl]-6-(3-fluoro-5-isopropoxy-phenyl)-2-(2,4,6-trimethylphenoxy)pyridine-3-carboxamide], “+++ (“+++” means <3 uM)”. In the case of `CCC(Oc1nc(C(C)(C)C)ccc1C(=O)NS(=O)(=O)c1cccc(N)n1)c1ccccc1` (stereo not shown) [Compound 1045, N-[(6-amino-2-pyridyl)sulfonyl]-6-tert-butyl-2-(1-phenylpropoxy)pyridine-3-carboxamide], the EC30 result is “++ (“++” means between 3 uM and 10 uM)”.

Consider `CC(C)COc1cc(F)cc(-c2ccc(C(=O)NS(=O)(=O)c3cccc(N)n3)c(N3CC4CCC3CC4)n2)c1` [Compound 1657, N-[(6-amino-2-pyridyl)sulfonyl]-2-(3-azabicyclo[2.2.2]octan-3-yl)-6-(3-fluoro-5-isobutoxy-phenyl)pyridine-3-carboxamide], for which the EC30 result was “+++ (“+++” means <3 uM)”. Turning to `CCOc1cccc2c1CN(Cc1c(C)cc(C)cc1C)C2(C)C(=O)NS(=O)(=O)c1cccc(F)c1` (stereo not shown) [Compound 1425, 4-ethoxy-N-(3-fluorophenyl)sulfonyl-1-methyl-2-[(2,4,6-trimethylphenyl)methyl]isoindoline-1-carboxamide], the EC30 entry is given as “+++ (“+++” means <3 uM)”. Regarding `CCC1CCCN1c1nc(-c2ccc(OC(C)C)nc2)ccc1C(=O)NS(=O)(=O)c1cccc(N)n1` (stereo not shown) [Compound 1087, N-[(6-amino-2-pyridyl)sulfonyl]-2-(2-ethylpyrrolidin-1-yl)-6-(6-isopropoxy-3-pyridyl)pyridine-3-carboxamide], the EC30 result is “+++ (“+++” means <3 uM)”. For `COc1cc(-c2cc(F)cc(OCC(C)C)c2)nc(N2[C@H](C)CC[C@@H]2C)c1C(=O)NS(=O)(=O)c1cccc(N)n1` [Compound 1254, N-[(6-amino-2-pyridyl)sulfonyl]-2-[(2S,5R)-2,5-dimethylpyrrolidin-1-yl]-6-(3-fluoro-5-isobutoxy-phenyl)-4-methoxy-pyridine-3-carboxamide] the value was “+++ (“+++” means <3 uM)”; for `Cc1cccc(C)c1Cn1nc(-c2ccc(OC(C)C)cc2)cc1C(=O)NS(=O)(=O)c1ccccc1` [Compound 1478, N-(benzenesulfonyl)-2-[(2,6-dimethylphenyl)methyl]-5-(4-isopropoxyphenyl)pyrazole-3-carboxamide], “+++ (“+++” means <3 uM)”. In the case of `Cc1cc(C)c(Oc2nc(-c3ccc(CN)cc3)ccc2C(=O)NS(=O)(=O)c2cccc(N)n2)c(C)c1` [Compound 1228, 6-[4-(aminomethyl)phenyl]-N-[(6-amino-2-pyridyl)sulfonyl]-2-(2,4,6-trimethylphenoxy)pyridine-3-carboxamide] it was “++ (“++” means between 3 uM and 10 uM)”.

As to `C[C@@H]1CC[C@H](C)N1c1nc(-c2ccc(F)cc2)ccc1C(=O)NS(=O)(=O)c1cccc(N)n1` [Compound 1029, N-[(6-amino-2-pyridyl)sulfonyl]-2-[(2S,5R)-2,5-dimethylpyrrolidin-1-yl]-6-(4-fluorophenyl)pyridine-3-carboxamide], the EC30 result is “++ (“++” means between 3 uM and 10 uM)”. For `CC(C)Oc1cc(-c2ccc(C(=O)NS(=O)(=O)c3cccc(N)n3)c(N3C[C@@H](C)CC3(C)C)n2)cc(C(F)(F)F)c1` [Compound 1674, N-[(6-amino-2-pyridyl)sulfonyl]-6-[3-isopropoxy-5-(trifluoromethyl)phenyl]-2-[(4S)-2,2,4-trimethylpyrrolidin-1-yl]pyridine-3-carboxamide] the value was “+++ (“+++” means <3 uM)”; for `CC(C)COc1cc(F)cc(-c2ccc(C(=O)NS(=O)(=O)c3cccc(N)n3)c(N(CC3CC3)C(C)C)n2)c1` [Compound 1157, N-[(6-amino-2-pyridyl)sulfonyl]-2-[cyclopropylmethyl(isopropyl)amino]-6-(3-fluoro-5-isobutoxy-phenyl)pyridine-3-carboxamide], “+++ (“+++” means <3 uM)”. In the case of `CC1CN(c2nc(C(C)(C)C)ccc2C(=O)NS(=O)(=O)c2cccc(N)n2)C(C)(C)C1` (stereo not shown) [Compound 1511] it was “+++ (“+++” means <3 uM)”. In the case of `CC1CN(c2nc(C(C)(C)C)c(C3=CCN(C(=O)OC(C)(C)C)CC3)cc2C(=O)NS(=O)(=O)c2cccc(N)n2)C(C)(C)C1` (stereo not shown) [Compound 1522, tert-butyl 4-[5-[(6-amino-2-pyridyl)sulfonylcarbamoyl]-2-tert-butyl-6-(2,2,4-trimethylpyrrolidin-1-yl)-3-pyridyl]-3,6-dihydro-2H-pyridine-1-carboxylate] it was “+++ (“+++” means <3 uM)”.
